Like-named read-outs stand apart in the source and are kept apart here.
Key:
mouse [1] = experiment: Phenylquinone test, analgesic activity by the oral route; format: in vivo
Method: (§1) The analgesic activity of the compound of formula I by the oral route, has been determined in the mouse using the following tests: • - Phenylquinone test (Hendershot and Forsaith - J. Pharma- col. Exptl. Ther. 123, 237 (1959)); • - Hot-plate test. Male albino mice, treated with increasing doses of the compound under exam, are placed on a plate thermostatized at 55°C. An effective dose 50 (ED50) is defined as the dose inducing a 50% increase of the reaction time to the pain stimulus.

Male albino mice = experiment: Hot-plate test (plate at 55°C), analgesic activity by the oral route; format: in vivo, mouse; details: read-out: Hot place EX50
Method: as §1

Acute toxicity per os = details: in vivo, po, mouse, at the 14th observation day
Text: The acute toxicity per os is expressed as LD50 at the 14th observation day.

mouse [2] = experiment: Jumping by nalorphine (physical addiction); format: in vivo
cyclooxygenase [3] = experiment: Cyclooxygenase inhibitory activity; format: biochemical
[4] = system: prostaglandine-synthetase; experiment: Prostaglandine-synthetase inhibitory activity; format: biochemical
cyclooxygenase [5] = details: background statement on the known drug; cited from earlier work
[6] = system: prostaglandine-synthetase; details: background statement on the known drug; cited from earlier work

## COc1ccc2c3c1O[C@H]1[C@@H](O)C=C[C@H]4[C@@H](C2)N(C)CC[C@@]341.Cl [Codeine HCl, codeine hydrochloride, reference compound]
Mouse [1]
  ED50: 5.6 mg/kg
Male albino mice; Mus musculus, po
  ED50: 25 mg/kg

## Cc1c(C(=O)O)c(C)n(C)c1C(=O)c1ccc(F)cc1 [Compound I, 5-(4-fluoro-benzoyl)-1,2,4-trimethyl-3-pyrrolcarboxylic acid]
Mouse [1]
  ED50: 2.1 mg/kg
Male albino mice; mouse, oral route, plate at 55°C, dose inducing a 50% increase of the reaction time to the pain stimulus
  ED50: 3.5 mg/kg
Acute toxicity per os
  LD50 at 336 h: > 1600 mg/kg
Mouse [2]
  jumping by nalorphine: does not induce
Cyclooxygenase [3]
  cyclooxygenase inhibitory activity: without cyclooxygenase and prostaglandine-synthetase inhibitory activity
[4]
  prostaglandine-synthetase inhibitory activity: without cyclooxygenase and prostaglandine-synthetase inhibitory activity

## Cc1cc(CC(=O)O)n(C)c1C(=O)c1ccc(Cl)cc1 [zomepirac, 5-(p-chlorobenzoyl)-l,4-dimethylpyrrole-2-acetic acid]
Cyclooxygenase [5]
  capacity of inhibiting cyclooxygenase: capacity of inhibiting the enzymes cyclooxygenase and prostaglandine-synthetase
[6]
  capacity of inhibiting prostaglandine-synthetase: capacity of inhibiting the enzymes cyclooxygenase and prostaglandine-synthetase
